Test results from patent US12209256B2, “System for protein inactivation and recombinant phages for targeted bacterial killing, infection, biodetection, and as a means of protein extraction” (priority 2018, dated 2025).

Columns and labels:
[1] = system: phage VP882 vqmAPhage::Tn5 in V. cholerae; experiment: Viral load by quantitative PCR of viral preparations; assay type: cell-based
Protocol: qPCR and Viral Preparations. Viral preparations consisted of purified non-chromosomal DNA (ZR BAC kit, Zymo Research) prepared from 2 mL of cells. Following addition of the indicated compounds or water control, the cultures were returned to growth for 3 h prior to harvesting. This alteration in procedure was necessary to enable growth of sufficient cells for use with the viral preparation kit. 0.5 ng of purified non-chromosomal DNA was used for each qPCR reaction. qPCR reactions were performed as described above for qRT-PCR reactions. Data were analyzed by a comparative CT method in which the VP882 phage-specific primer set (JSO-1399×1400) was normalized to the non-phage plasmid-specific primer set (JSO-1401×1402). The reference sample for each comparison was the isogenic strain (Δtdh or WT) that was not induced.

[2] = system: E. coli, V. cholerae, and V. parahaemolyticus; experiment: Generalized DPO-based phage kill switch growth/lysis assay (FIG. 4); assay type: cell-based; conditions: arabinose plus DPO (50 μM synthetic DPO per FIG. 4 legend)
Protocol: FIG. 4 is a graph showing the growth of E. coli, V. cholerae, and V. parahaemolyticus strains lysogenized with the generalized DPO-based phage kill switch in minimal medium lacking (black bars) or containing (white bars) 50 μM synthetic DPO to induce lysis, where all media contained arabinose.
(§1) Growth, Lysis, and Reporter Assays. Typically, overnight cultures were back diluted 1:1000 into fresh medium with appropriate antibiotics and strains were grown to OD600 0.5-0.6. Cultures were back diluted 1:20, and grown to OD600 0.1, before being dispensed (200 μL) into 96 well plates (Corning Costar 3904). MMC, ara, or aTc was added as specified. […] Plates were shaken at 37° C. and a BioTek Synergy Neo2 Multi-Mode reader was used to measure OD600, OD600 and bioluminescence, or OD600 and fluorescence. […]. In the case of fluorescence assays, M9 supplemented with 0.4% casamino acids (BD-Difco) was used and readings were made by excitation at 588 nm and emission at 633 nm. The glycerol stocks were prepared from three independent colonies of each strain at a single OD600. Care was taken to ensure that the OD600 between these strains was identical prior to storage. Parallel cultures of the same strains were used for viral preparations.

[3] = system: V. parahaemolyticus lysogenized with phage VP882; experiment: Growth/lysis assay (OD600), VP882 lysogen; assay type: cell-based; conditions: for host cell lysis (OD600): wild-type VP882 lysogen, expression induced (ara or aTc) or MMC added
Protocol: as §1

[4] = system: V. cholerae carrying the VP882 prophage; experiment: Growth/lysis assay (OD600), V. cholerae carrying VP882; assay type: cell-based
Protocol: as §1

Pq-lux [5] = experiment: Pq-lux reporter assay in V. parahaemolyticus; assay type: cell-based; conditions: VP882 lysogen
Protocol: as §1

phage VP882 cI = experiment: Confocal microscopy of HALO-cI localization (VP882 cI); assay type: cell-based; conditions: single-cell level in E. coli
Protocol: (§2) Confocal Microscopy. Overnight cultures, started from single colonies of E. coli (T7Express) carrying HALO and/or SNAP fusions (see Table 2) were back-diluted 1:1000, and grown at 37° C. to OD600˜0.2. Either MMC, aTc, or ethanol in water was added. The so-treated samples were returned to shaking at 37° C. for an additional 60 min prior to live-cell staining and imaging. Live-cell staining was performed using a protocol adapted from (Ke et al., 2016). Briefly, HALO-TMR was added to each sample at 10 μM. The samples were incubated in the dark for 15-20 min at 37° C. The cells were pelleted at 13,000 g×1 min, washed twice with M9 medium, and resuspended in 50-150 μL of fresh M9 medium. 5-10 μL of each sample was spotted onto a glass coverslip and overlaid with a small amount of M9-agar. The samples were imaged on a Leica SP8 Confocal microscope. HALO-TMR was excited with 561 nm light and detected within a range of 579-622 nm. For SNAP-Qtip co-localization experiments, the SNAP-specific dye JF503 (Grimm et al., 2017) was added at 10 μM at the same time as the HALO-TMR reagent was added. SNAP was visualized by excitation at 504 nm and detection within 516-540 nm. All images were acquired under the same conditions (laser power and gain) in LASX (Leica Microsystems). Images were imported into Fiji for processing, which consisted solely of adjusting brightness and contrast (min-max).

[6] = system: V. parahaemolyticus harboring phage VP882; experiment: Phage (virion) DNA isolation from culture fluids; assay type: cell-based
Protocol: Phage DNA Isolation. Phage DNA was purified from phage particles present in the supernatants of lysed cells (virion) and from host cell pellets lysogenized with VP882 (prophage). Prophage DNA was purified using the FosmidMAX kit (Lucigen) according to the manufacturer's protocol for 1.5 mL cultures. Virion DNA was isolated using a Phage DNA isolation kit (Norgen Biotek) including the DNase I and Proteinase K treatment steps indicated in the manufacturer's protocol.

HIS-HALO-Gp59 = experiment: Western blot to assess HIS-HALO-Gp59 cleavage; assay type: cell-based, E. coli
Pgp69-lux = Pgp69-lux reporter assay in V. parahaemolyticus lysogen; assay type: cell-based; conditions: VP882 lysogen
Protocol: as §1

Pq-lux [7] = experiment: Pq-lux reporter assay in recombinant E. coli; assay type: cell-based
Protocol: as §1

HALO-cI from MJ1 = experiment: Confocal microscopy of HALO-cI localization (MJ1 cI); assay type: cell-based, phage MJ1; conditions: co-expression in E. coli
Protocol: as §2

cI = experiment: Co-immunoprecipitation of HALO-cI with HIS-Gp55; assay type: binding, phage VP882; conditions: combined E. coli lysates
lambda HALO-cI = experiment: Confocal microscopy of HALO-cI localization (lambda cI); assay type: cell-based; conditions: co-expression in E. coli
Protocol: as §2

[8] = system: HALO-cI repressor from vibriophage VP58.5; experiment: Confocal microscopy of HALO-cI localization (VP58.5 cI); assay type: cell-based; conditions: co-expression in E. coli
Protocol: as §2

[9] = synthetic DPO supplied to WT and Δtdh strains, vqmAPhage induced
[10] = WT and Δtdh strains, qtip from inducible promoter or MMC

Molecule: Cc1cnc(O)c(C)n1 [DPO, 3,5-dimethylpyrazine-2-ol]
- additional increase in viral load with exogenous DPO versus endogenous DPO only ([1]; WT strain): 35%
- viral load [1, 9]: increased in both strains to similar extents
- lysis [2]: maximal lysis
- host cell lysis ([3]; minimal medium lacking threonine, DPO added in the absence of induction of VqmAPhage): no lysis
- host cell lysis ([3]; minimal medium lacking threonine, vqmAPhage induced with 0.2% ara, DPO 10 μM): maximal host cell lysis
- additional lysis with exogenous DPO versus endogenously-produced DPO only ([4]; WT strain): 25%
- lysis [4, 9]: lysis occurred

Molecule: CO[C@@]12[C@H](COC(N)=O)C3=C(C(=O)C(C)=C(N)C3=O)N1C[C@@H]1N[C@@H]12 [MMC, mitomycin C]
- light production from Pq-lux (Pq-lux [5]): rapidly increased
- cI localization (VP882 HALO-cI) (phage VP882 cI): remained diffuse
- release of VP882 phage DNA into culture fluids [6]: VP882 phage DNA could be purified
- HIS-HALO-Gp59 bands on Western blot (HIS-HALO-Gp59; recA+ E. coli, MMC-treated): lower-molecular-weight bands, presumably cleavage products
- HIS-HALO-Gp59 protein on Western blot (HIS-HALO-Gp59; ΔrecA E. coli, MMC treatment): unaffected
- host cell lysis ([3]; VP882 phage harboring gp62::Tn5): do not
- host cell lysis ([3]; VP882 phage with a Tn5 in vqmAPhage): lyse
- light production from Pgp69-lux (Pgp69-lux): rapidly increased
- offset between activation of Pq-lux and activation of Pgp69-lux (Pgp69-lux): 10 min
- Pq-lux light production (Pq-lux [7]; recA+ E. coli carrying Pq-lux and HIS-HALO-Gp59): significant increase in light production
- Pq-lux light production (Pq-lux [7]; ΔrecA E. coli carrying Pq-lux and HIS-HALO-Gp59): no effect

B1: Qtip (protein, listed as Vibrio cholerae)
chain: MCDFCSEHIDSLDALQSSLEKGTAIIELLDTALSAGIEVSPRVVSCALSAAHQHLQVSEKINRSLQIGCGSKEVLRLVD
- viral production [1, 10]: increased viral production
- cI localization (VP882 HALO-cI) (phage VP882 cI): foci located primarily at the cell poles
- cI aggregation (MJ1 HALO-cI) (HALO-cI from MJ1): resulted in foci
- binding of cI during purification of HIS-Gp55 (cI): cI binds to Gp55
- host cell lysis (OD600) [3]: host cell lysis comparable to when MMC was added or vqmAPhage was induced
- cI aggregation (lambda HALO-cI) (lambda HALO-cI): No aggregation occurred
- lysis [4, 10]: Near-complete lysis
- Pq-lux activity (Pq-lux [7]; combined reporter plasmid (inducible vqmAPhage, Pq-lux, cI), pTetA-gp55 induced): sufficient to generate Pq-lux activity
- cI aggregation (VP58.5 HALO-cI) [8]: Aggregation also occurred

B2: ORF584 (protein, listed as Vibrio cholerae)
chain: MDLRVSNAKDLLDKFEEKAVQMESISQLLANAPEDLTLATVQGSLSALASIARDAGEAADRLRTISSAEG
- cI localization (VP882 HALO-cI) (phage VP882 cI): stripe of cI localization along the length of the cell
- cI localization (VP882 HALO-cI) (phage VP882 cI; listed as orf584): caused aggregation
- cI aggregation (MJ1 HALO-cI) (HALO-cI from MJ1): caused aggregation
- host cell lysis (OD600) [3]: lysis
- cI aggregation (lambda HALO-cI) (lambda HALO-cI): not
- phage VP882 Pq expression (Pq-lux [7]; orf584 induced, host per Table 2): de-repression
